In ChEMBL document CHEMBL4184186, “Targeting protein-protein interaction between MLL1 and reciprocal proteins for leukemia therapy” (Bioorg Med Chem, 2018):
One block for each compound: values may come before it.

Key:
Menin [1] = molecular target: T1, Menin (Homo sapiens, UniProt O00255); test: Binding affinity to menin (unknown origin) by isothermal titration calorimetry
T1 sequence (O00255 whole entry): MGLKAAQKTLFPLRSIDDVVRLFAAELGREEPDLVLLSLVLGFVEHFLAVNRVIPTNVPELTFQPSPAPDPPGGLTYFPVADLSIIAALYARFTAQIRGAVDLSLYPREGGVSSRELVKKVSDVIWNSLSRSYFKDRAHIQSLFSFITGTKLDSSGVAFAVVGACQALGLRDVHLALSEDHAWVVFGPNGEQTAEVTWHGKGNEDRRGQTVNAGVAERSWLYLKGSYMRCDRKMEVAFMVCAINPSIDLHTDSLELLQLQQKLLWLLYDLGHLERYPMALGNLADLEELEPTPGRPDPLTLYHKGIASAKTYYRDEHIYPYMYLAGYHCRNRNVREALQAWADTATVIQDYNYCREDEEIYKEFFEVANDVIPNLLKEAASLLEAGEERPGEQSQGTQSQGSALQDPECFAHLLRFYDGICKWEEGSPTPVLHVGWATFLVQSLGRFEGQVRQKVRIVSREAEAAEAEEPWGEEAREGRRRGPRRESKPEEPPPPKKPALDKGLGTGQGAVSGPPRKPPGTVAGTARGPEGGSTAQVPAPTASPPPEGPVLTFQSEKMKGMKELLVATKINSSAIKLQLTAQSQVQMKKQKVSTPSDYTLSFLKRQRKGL

Menin [2] = molecular target: T1, Menin; test: Displacement of FITC-MBM1 from full length human menin measured after 1 hr by fluorescence polarization assay
[3] = molecular target: Histone-lysine N-methyltransferase 2A (Homo sapiens, UniProt Q03164); test: Inhibition of MLL1 binding to N-terminal His-tagged […] 23 deletion mutant (24 to 334 residues) (unknown origin) expressed in Escherichia coli Rosetta 2 (DE3) pLysS cells by fluorescence polarization assay
Menin [4] = molecular target: T1, Menin
Description: Displacement of FITC-MBM1 from menin (unknown origin) measured after 1 hr by fluorescence polarization assay

Menin [5] = molecular target: T1, Menin; test: Displacement of FITC-MBM1 from full length human menin measured after 2 hrs by fluorescence polarization assay

Histone-lysine N-methyltransferase 2A, sequence (Q03164 1-2718 limits assumed, stated change not applied): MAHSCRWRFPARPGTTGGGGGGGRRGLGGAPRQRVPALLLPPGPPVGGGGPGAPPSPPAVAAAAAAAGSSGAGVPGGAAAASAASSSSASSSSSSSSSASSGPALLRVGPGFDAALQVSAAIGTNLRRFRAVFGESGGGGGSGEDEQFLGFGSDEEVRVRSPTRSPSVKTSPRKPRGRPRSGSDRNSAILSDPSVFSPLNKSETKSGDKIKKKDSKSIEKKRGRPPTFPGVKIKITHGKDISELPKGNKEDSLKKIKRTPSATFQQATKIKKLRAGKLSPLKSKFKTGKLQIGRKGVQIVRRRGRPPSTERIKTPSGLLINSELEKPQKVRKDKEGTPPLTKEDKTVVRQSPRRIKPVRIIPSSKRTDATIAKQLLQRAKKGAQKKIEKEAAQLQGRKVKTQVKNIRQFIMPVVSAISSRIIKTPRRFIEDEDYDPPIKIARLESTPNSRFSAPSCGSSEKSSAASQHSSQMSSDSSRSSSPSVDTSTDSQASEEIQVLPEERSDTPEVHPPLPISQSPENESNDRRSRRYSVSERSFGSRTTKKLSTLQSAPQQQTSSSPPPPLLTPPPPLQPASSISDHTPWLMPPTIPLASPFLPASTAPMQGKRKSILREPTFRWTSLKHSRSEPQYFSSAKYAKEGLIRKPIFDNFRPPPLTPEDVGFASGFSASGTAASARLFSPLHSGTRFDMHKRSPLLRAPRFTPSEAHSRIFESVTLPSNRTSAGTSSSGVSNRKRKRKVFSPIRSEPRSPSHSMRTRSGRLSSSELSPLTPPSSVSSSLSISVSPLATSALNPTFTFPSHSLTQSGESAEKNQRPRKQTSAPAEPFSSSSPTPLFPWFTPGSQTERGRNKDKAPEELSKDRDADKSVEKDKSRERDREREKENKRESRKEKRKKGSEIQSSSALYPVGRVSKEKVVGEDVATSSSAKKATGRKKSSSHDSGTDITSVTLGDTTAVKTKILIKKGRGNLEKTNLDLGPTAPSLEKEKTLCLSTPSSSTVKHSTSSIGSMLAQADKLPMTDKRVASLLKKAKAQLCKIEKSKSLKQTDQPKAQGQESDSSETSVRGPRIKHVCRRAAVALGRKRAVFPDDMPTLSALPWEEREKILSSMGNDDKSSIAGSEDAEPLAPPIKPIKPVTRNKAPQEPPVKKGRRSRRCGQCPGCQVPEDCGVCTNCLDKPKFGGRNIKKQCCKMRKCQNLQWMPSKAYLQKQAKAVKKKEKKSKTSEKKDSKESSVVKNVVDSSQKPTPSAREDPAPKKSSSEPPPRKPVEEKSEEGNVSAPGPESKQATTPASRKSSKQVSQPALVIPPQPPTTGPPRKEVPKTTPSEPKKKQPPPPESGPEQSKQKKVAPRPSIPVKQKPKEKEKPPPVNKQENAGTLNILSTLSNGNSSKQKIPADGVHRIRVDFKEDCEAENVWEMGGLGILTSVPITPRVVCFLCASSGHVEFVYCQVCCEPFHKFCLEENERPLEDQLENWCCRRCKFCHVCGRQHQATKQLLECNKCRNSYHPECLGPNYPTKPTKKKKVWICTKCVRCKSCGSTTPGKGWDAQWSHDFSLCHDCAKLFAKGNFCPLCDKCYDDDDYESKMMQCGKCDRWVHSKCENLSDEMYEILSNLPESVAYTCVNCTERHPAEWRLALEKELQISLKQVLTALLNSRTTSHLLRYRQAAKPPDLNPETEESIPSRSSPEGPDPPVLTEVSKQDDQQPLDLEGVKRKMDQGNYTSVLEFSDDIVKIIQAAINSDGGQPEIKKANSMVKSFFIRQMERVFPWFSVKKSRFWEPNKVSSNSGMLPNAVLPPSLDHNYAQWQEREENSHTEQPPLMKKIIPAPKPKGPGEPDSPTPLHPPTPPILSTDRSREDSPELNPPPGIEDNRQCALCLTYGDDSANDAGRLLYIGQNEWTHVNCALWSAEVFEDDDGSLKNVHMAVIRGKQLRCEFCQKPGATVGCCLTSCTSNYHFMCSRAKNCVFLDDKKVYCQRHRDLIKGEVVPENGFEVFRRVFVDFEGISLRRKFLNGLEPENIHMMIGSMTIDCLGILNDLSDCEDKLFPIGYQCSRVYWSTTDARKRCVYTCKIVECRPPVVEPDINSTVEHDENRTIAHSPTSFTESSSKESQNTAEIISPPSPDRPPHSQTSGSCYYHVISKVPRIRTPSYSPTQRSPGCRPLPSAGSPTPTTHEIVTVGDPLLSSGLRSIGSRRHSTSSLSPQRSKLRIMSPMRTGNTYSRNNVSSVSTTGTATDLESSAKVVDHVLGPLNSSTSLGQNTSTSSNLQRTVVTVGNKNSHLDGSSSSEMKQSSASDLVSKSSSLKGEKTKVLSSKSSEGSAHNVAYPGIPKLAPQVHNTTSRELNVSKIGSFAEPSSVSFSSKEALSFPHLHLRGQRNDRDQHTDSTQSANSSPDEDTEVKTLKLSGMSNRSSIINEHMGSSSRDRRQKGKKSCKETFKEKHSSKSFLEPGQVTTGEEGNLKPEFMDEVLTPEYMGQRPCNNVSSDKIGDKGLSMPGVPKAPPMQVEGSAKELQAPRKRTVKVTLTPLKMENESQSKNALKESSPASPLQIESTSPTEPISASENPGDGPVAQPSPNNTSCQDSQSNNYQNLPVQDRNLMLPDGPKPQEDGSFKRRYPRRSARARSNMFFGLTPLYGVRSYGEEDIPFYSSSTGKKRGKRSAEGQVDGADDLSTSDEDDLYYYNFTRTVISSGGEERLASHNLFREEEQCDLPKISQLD
Histone-lysine N-methyltransferase 2A, sequence (Q03164 2719-3969 limits assumed, stated change not applied): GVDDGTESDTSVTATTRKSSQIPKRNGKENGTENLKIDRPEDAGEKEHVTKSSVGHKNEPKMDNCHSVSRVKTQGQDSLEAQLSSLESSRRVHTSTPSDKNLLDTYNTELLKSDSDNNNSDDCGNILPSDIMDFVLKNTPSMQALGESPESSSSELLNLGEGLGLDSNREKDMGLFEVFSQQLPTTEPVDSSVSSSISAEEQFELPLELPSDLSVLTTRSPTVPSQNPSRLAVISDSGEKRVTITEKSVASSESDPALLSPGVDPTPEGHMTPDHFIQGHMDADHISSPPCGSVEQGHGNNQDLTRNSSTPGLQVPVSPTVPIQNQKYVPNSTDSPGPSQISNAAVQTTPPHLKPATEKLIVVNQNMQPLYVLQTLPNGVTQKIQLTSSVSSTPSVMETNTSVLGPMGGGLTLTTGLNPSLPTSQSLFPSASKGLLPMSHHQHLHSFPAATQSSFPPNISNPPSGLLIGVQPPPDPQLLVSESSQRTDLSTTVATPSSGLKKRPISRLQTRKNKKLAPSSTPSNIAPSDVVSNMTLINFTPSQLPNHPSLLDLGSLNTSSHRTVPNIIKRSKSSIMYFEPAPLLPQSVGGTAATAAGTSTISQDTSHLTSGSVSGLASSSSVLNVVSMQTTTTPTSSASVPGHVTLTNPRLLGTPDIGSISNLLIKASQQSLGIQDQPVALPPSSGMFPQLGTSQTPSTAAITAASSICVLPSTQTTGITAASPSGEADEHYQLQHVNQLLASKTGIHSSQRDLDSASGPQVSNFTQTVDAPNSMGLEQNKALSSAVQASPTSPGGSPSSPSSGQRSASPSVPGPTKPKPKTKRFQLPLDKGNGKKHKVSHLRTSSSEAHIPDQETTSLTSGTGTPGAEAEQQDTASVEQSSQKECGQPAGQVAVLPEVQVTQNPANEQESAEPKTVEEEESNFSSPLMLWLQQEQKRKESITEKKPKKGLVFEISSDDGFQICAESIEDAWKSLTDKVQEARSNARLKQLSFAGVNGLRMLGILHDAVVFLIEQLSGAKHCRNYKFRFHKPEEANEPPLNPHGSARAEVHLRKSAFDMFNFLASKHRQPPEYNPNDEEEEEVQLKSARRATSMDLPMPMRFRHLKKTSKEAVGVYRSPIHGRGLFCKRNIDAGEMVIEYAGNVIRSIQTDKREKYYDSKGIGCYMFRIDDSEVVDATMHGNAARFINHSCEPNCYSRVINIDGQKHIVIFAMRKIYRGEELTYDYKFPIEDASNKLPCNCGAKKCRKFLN

SMILES: Cc1c(CN2CCC(Nc3ncnc4sc(CC(F)(F)F)cc34)CC2)ccc2c1cc(C#N)n2Cc1cn[nH]c1
Kd (Menin [1]): 9.3 nM
IC50 (Menin [2]): 14.7 nM

SMILES: NCC(CCN1CC=C(c2ccc(Cl)cc2)CC1)(c1ccccc1)C1CCCC1 (stereo not drawn)
IC50 (Menin [5]): 830 nM
Ki (Menin [5]): 80 nM

SMILES: CN(C)C(=O)C(CCN1CCC(O)(c2ccc(Cl)cc2)CC1)(c1ccccc1)c1ccccc1 [LOPERAMIDE]
IC50 (Menin [5]): 69000 nM

The remaining lines, values ahead:

IC50 [3]: 4.5 nM
Ki [3]: < 1 nM
SMILES: CCC(CC)(NC(=O)C(C)C)C(=O)N[C@@H](CCCNC(=N)N)C(=O)NC1(C(=O)NC(c2ccc(Cl)cc2)c2ccc(Cl)cc2)CCCC1

IC50 (Menin [4]): 1 nM
SMILES: O=c1cccc2n1[C@@H]1C[C@H](C2)CN(CC(O)CCCc2ccccc2)C1 (stereo partly drawn)
